These compounds were tested on JR251 or RBL cells (assay: Store-operated calcium entry, either JR251 or RBL cells, or both).
Assay type: cell-based
In short: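 FLIPR calcium-entry readout in fluo-4-loaded cells held in Ca2+-free HBSS before calcium add-back. For RBL-2H3, store depletion used thapsigargin for 25 min after a 5 min compound pre-incubation, and IC50 was based on the 7 s Upslope. For Orai1/STIM1 stable cells, compound was pre-incubated 30 min and IC50 was based on Peak-Basal.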

Structure (SMILES) | IC50 [µM]
Cc1ccc(-c2csc(NC(=O)c3nc4ccccc4s3)c2C(=O)O)c(F)c1 [2-(benzo[d]thiazole-2-carboxamido)-4-(2-fluoro-4-methylphenyl)thiophene-3-carboxylic acid] | < 10
COc1ccc(-c2csc(NC(=O)c3nc4ccccc4o3)c2C(=O)O)c(Cl)c1 [2-(benzo[d]oxazole-2-carboxamido)-4-(2-chloro-4-methoxyphenyl)thiophene-3-carboxylic acid] | < 10
O=C(Nc1scc(-c2cc3cccc(O)c3o2)c1C(=O)O)c1ccc2nnsc2c1 [2-(benzo[d][1,2,3]thiadiazole-6-carboxamido)-4-(7-hydroxybenzofuran-2-yl)thiophene-3-carboxylic acid] | < 10
O=C(O)c1c(-c2ccc(Cl)cc2)csc1NC(=O)C(F)Cc1cc(F)c(F)cc1Cl (stereo not drawn) [2-(3-(2-chloro-4,5-difluorophenyl)-2-fluoropropanamido)-4-(4-chlorophenyl)thiophene-3-carboxylic acid] | < 10
O=C(O)c1c(-c2ccc(Cl)cc2)csc1NC(=O)C1Cc2c(F)cccc2S1 (stereo not drawn) [4-(4-chlorophenyl)-2-(4-fluoro-2,3-dihydrobenzo[b]thiophene-2-carboxamido)thiophene-3-carboxylic acid] | < 10
O=C(Nc1scc(-c2ccc(Cl)cc2)c1C(=O)O)c1cnn(-c2ccccc2)c1 [4-(4-chlorophenyl)-2-(1-phenyl-1H-pyrazole-4-carboxamido)thiophene-3-carboxylic acid] | < 10
COc1cc(-c2csc(NC(=O)c3nc4ccccc4o3)c2C(=O)O)ccc1Cl [2-(benzo[d]oxazole-2-carboxamido)-4-(4-chloro-3-methoxyphenyl)thiophene-3-carboxylic acid] | < 10
COc1ccc(-c2csc(NC(=O)c3cc4ccccc4o3)c2C(=O)O)c(F)c1F [2-(benzofuran-2-carboxamido)-4-(2,3-difluoro-4-methoxyphenyl)thiophene-3-carboxylic acid] | < 10
O=C(Nc1scc(-c2cc(F)c(F)c(F)c2)c1C(=O)O)c1cc2ccccc2o1 [2-(benzofuran-2-carboxamido)-4-(3,4,5-trifluorophenyl)thiophene-3-carboxylic acid] | < 10
O=C(Nc1scc(-c2ccc(Cl)cc2)c1C(=O)O)c1cnc(C(F)(F)F)nc1 [4-(4-chlorophenyl)-2-(2-(trifluoromethyl)pyrimidine-5-carboxamido)thiophene-3-carboxylic acid] | < 10
O=C(Nc1scc(-c2cc3cccc(O)c3o2)c1C(=O)O)c1ccc2snnc2c1 [2-(benzo[d][1,2,3]thiadiazole-5-carboxamido)-4-(7-hydroxybenzofuran-2-yl)thiophene-3-carboxylic acid] | < 10
O=C(O)c1c(-c2ccc(Cl)cc2)csc1NC(=O)C(F)Cc1cc(F)ccc1Cl (stereo not drawn) [2-(3-(2-chloro-5-fluorophenyl)-2-fluoropropanamido)-4-(4-chlorophenyl)thiophene-3-carboxylic acid] | < 10
Cc1cc(C#N)ccc1-c1csc(NC(=O)c2nc3ccccc3o2)c1C(=O)O [2-(benzo[d]oxazole-2-carboxamido)-4-(4-cyano-2-methylphenyl)thiophene-3-carboxylic acid] | < 10
O=C(O)c1c(-c2ccc(Cl)cc2)csc1NC(=O)[C@H]1CCc2ccccc2C1 [(S)-4-(4-chlorophenyl)-2-(1,2,3,4-tetrahydronaphthalene-2-carboxamido)thiophene-3-carboxylic acid] | < 10
O=C(Nc1scc(-c2ccc(Cl)cc2)c1C(=O)O)/C(F)=C/c1ccccc1 [(Z)-4-(4-chlorophenyl)-2-(2-fluoro-3-phenylacryl amido)thiophene-3-carboxylic acid] | < 10
Cc1ccc(-c2csc(NC(=O)c3cc4sccc4s3)c2C(=O)O)c(F)c1F [4-(2,3-difluoro-4-methylphenyl)-2-(thieno[3,2-b]thiophene-2-carboxamido)thiophene-3-carboxylic acid] | < 10
COc1ccc2oc(C(=O)Nc3scc(-c4ccc(C)c(F)c4F)c3C(=O)O)nc2c1 [4-(2,3-difluoro-4-methylphenyl)-2-(5-methoxybenzo[d]oxazole-2-carboxamido)thiophene-3-carboxylic acid] | < 10
COc1c(F)ccc(-c2csc(NC(=O)c3nc4ccccc4o3)c2C(=O)O)c1F [2-(benzo[d]oxazole-2-carboxamido)-4-(2,4-difluoro-3-methoxyphenyl)thiophene-3-carboxylic acid] | < 10
O=C(Nc1scc(-c2ccc(Cl)cc2)c1C(=O)O)c1ccc2ncoc2c1 [2-(benzo[d]oxazole-6-carboxamido)-4-(4-chlorophenyl)thiophene-3-carboxylic acid] | < 10
O=C(Nc1scc(-c2ccc(Cl)cc2)c1C(=O)O)c1cc2occc2[nH]1 [4-(4-chlorophenyl)-2-(4H-furo[3,2-b]pyrrole-5-carboxamido)thiophene-3-carboxylic acid] | < 10
COc1c(F)ccc(-c2csc(NC(=O)c3cc4ccccc4o3)c2C(=O)O)c1F [2-(benzofuran-2-carboxamido)-4-(2,4-difluoro-3-methoxyphenyl)thiophene-3-carboxylic acid] | < 10
COc1cc(Br)cc2cc(-c3csc(NC(=O)c4cc5ccccc5o4)c3C(=O)O)oc12 [2-(benzofuran-2-carboxamido)-4-(5-bromo-7-methoxybenzofuran-2-yl)thiophene-3-carboxylic acid] | < 10

Now from value to compound:

IC50 [µM] | Structure (SMILES)
< 10 | O=C(CCc1ccccc1Cl)Nc1scc(-c2ccc(Cl)cc2)c1C(=O)O [4-(4-chlorophenyl)-2-(3-(2-chlorophenyl)propanamido)thiophene-3-carboxylic acid]
< 10 | O=C(Nc1scc(-c2ccc(Br)cc2)c1C(=O)O)c1cc2sccc2[nH]1 [4-(4-bromophenyl)-2-(4H-thieno[3,2-b]pyrrole-5-carboxamido)thiophene-3-carboxylic acid]
< 10 | O=Cc1sccc1OCC(=O)Nc1scc(-c2ccc(Cl)cc2)c1C(=O)O [4-(4-chlorophenyl)-2-(2-(2-formylthiophen-3-yloxy)acetamido)thiophene-3-carboxylic acid]
< 10 | Cc1cccc(C)c1CCC(=O)Nc1scc(-c2ccc(Br)cc2)c1C(=O)O [4-(4-bromophenyl)-2-(3-(2,6-dimethylphenyl)propanamido)thiophene-3-carboxylic acid]
< 10 | O=C(O)c1c(-c2ccc(Cl)cc2)csc1NC(=O)C(F)Cc1ccccc1Cl (stereo not drawn) [4-(4-chlorophenyl)-2-(3-(2-chlorophenyl)-2-fluoropropanamido)thiophene-3-carboxylic acid]
< 10 | O=C(NCc1ccccc1)Nc1scc(-c2ccc(Br)cc2)c1C(=O)O [2-(3-benzylureido)-4-(4-bromophenyl)thiophene-3-carboxylic acid]
< 10 | O=C(Nc1scc(-c2ccc(Cl)cc2)c1C(=O)O)c1ccc(Cl)nn1 [4-(4-chlorophenyl)-2-(6-chloropyridazine-3-carboxamido)thiophene-3-carboxylic acid]
< 10 | NC(=O)c1c(-c2ccc(Br)cc2)csc1-n1c(C(=O)O)nc2ccccc21 [N-(4-(4-bromophenyl)-3-carbamoylthiophen-2-yl)-1H-benzo[d]imidazole-2-carboxylic acid]
< 10 | COc1ccc(CCC(=O)Nc2scc(-c3ccc(Br)cc3)c2C(=O)O)cc1 [4-(4-bromophenyl)-2-(3-(4-methoxyphenyl)propanamido)thiophene-3-carboxylic acid]
< 10 | O=C(Cc1ccccc1)Nc1scc(-c2ccc(Cl)cc2)c1C(=O)O [4-(4-chlorophenyl)-2-(2-phenylacetamido)thiophene-3-carboxylic acid]
< 10 | O=C(Nc1scc(-c2ccc(Cl)cc2)c1C(=O)O)c1ccc(-c2cccs2)s1 [2-(2,2′-bithiophene-5-carboxamido)-4-(4-chlorophenyl)thiophene-3-carboxylic acid]
< 10 | O=C(O)c1c(-c2ccc(Cl)cc2)csc1NC(=O)C(F)Cc1ccccc1 (stereo not drawn) [4-(4-chlorophenyl)-2-(2-fluoro-3-phenylpropanamido)thiophene-3-carboxylic acid]
< 10 | O=C(O)c1c(-c2ccc(Br)cc2)csc1NC(=O)C(F)Cc1ccccc1Cl (stereo not drawn) [4-(4-bromophenyl)-2-(3-(2-chlorophenyl)-2-fluoropropanamido)thiophene-3-carboxylic acid]
< 10 | Cc1ccsc1C(=O)Nc1scc(-c2ccc(Br)cc2)c1C(=O)O [4-(4-bromophenyl)-2-(3-methylthiophene-2-carboxamido)thiophene-3-carboxylic acid]
< 10 | O=C(O)c1c(-c2ccc(Cl)cc2)csc1NC(=O)[C@@H](F)Cc1ccccc1Cl [(S)-4-(4-chlorophenyl)-2-(3-(2-chlorophenyl)-2-fluoropropanamido)thiophene-3-carboxylic acid]
< 10 | Cc1c(S(=O)(=O)c2ccc(Cl)cc2)csc1C(=O)Nc1scc(-c2ccc(Br)cc2)c1C(=O)O [4-(4-bromophenyl)-2-(4-(4-chlorophenylsulfonyl)-3-methylthiophene-2-carboxamido)thiophene-3-carboxylic acid]
< 10 | O=C(O)c1c(-c2ccc(Cl)cc2)csc1NC(=O)[C@@H]1CCc2ccccc2C1 [(R)-4-(4-chlorophenyl)-2-(1,2,3,4-tetrahydronaphthalene-2-carboxamido)thiophene-3-carboxylic acid]
< 10 | O=C(CC(c1ccccc1)c1ccccc1)Nc1scc(-c2ccc(Cl)cc2)c1C(=O)O [4-(4-chlorophenyl)-2-(3,3-diphenylpropanamido)thiophene-3-carboxylic acid]
< 10 | Cc1cccc2nc(C(=O)Nc3scc(-c4ccc(Cl)cc4)c3C(=O)O)cnc12 [4-(4-chlorophenyl)-2-(5-methylquinoxaline-2-carboxamido)thiophene-3-carboxylic acid]
< 10 | O=C(Nc1scc(-c2ccc(Cl)cc2)c1C(=O)O)c1nc2cc(Br)ccc2o1 [2-(5-bromobenzo[d]oxazole-2-carboxamido)-4-(4-chlorophenyl)thiophene-3-carboxylic acid]
